# In patent US20240116910A1, “Heterocycles as WIP1 Inhibitors” (PMV Pharmaceuticals, Inc., priority 2022, published 2024):
# Target: recombinant His-tag Wip1(2-420) protein (amino acids #2-420) (Homo sapiens (Human), UniProt O15297)
# Test: Wip1(2-420) phosphatase enzyme FDP assay
# Type: biochemical
# Settings: fluorescein diphosphate (FDP) substrate, RT 2 hours, fluorescence Ex485/Em535; read-out: WIP1 (Truncated 2-420) FDP Assay: IC50
# Description: The Human Wip1 (2-420, aa 2-420) or Wip1 full length (aa 1-605) DNA sequence was codon optimized and synthesized by Genscript for insect cell expression. The open reading frame of Wip1(2-420) with a N-terminal-His6 affinity tag followed by a TEV cleavage site was subcloned sites into the pFastBac1 expression vector. The recombinant bacmid DNA was transfected in Sf9 insect cells for baculovirus production. After 72 hours infection, the Sf9 cells were harvested by centrifugation and resuspended in lysis buffer containing 50 mM Tris/HCl, pH 8.0, 500 mM NaCl, 20% glycerol, Benzonase 0.5% CHAPS and Roche cOmplete™ EDTA free protease inhibitors. Cells were disrupted with microfluidizer and the debris was removed by centrifugation at 185,000 g for 1 hour. The supernatant was subjected to HisTrap FF for affinity purification. Proteins were eluted with a linear gradient of 0-500 mM imidazole in HisTrap buffer containing 50 mM Tris/HCl, pH 8.0, 500 mM NaCl and 20% glycerol, 0.05% CHAPS. The eluted protein was dialyzed against dialysis buffer (20 mM MES, 100 mM NaCl, 20% glycerol, 0.5 mM TCEP, 0.05% CHAPS) followed purification via HiTrap SP HP column. The protein was eluted with a gradient of 100 mM-2 M NaCl in dialysis buffer. His6-[…] was finally concentrated and loaded onto a size-exclusion column (NiLoad 16/600 Superdex 200 pg, GE Healthcare) pre-equilibrated with 50 mM MOPS (pH 7.5), 200 mM NaCl, 20% glycerol, 1 mM TCEP, 0.05% CHAPS and 0.1 mM EGTA. The peak fractions containing purified Nis6-Wip1(2-420) were pooled and concentrated to 1.0 mg/mL and flash frozen at −80° C.
# Wip1 Length and Wip1(2-420) Phosphatase Enzyme FDP Assays.
# Test compounds (252 mM stock in DMSO) were diluted 3 folds in series in DMSO and 1.2 μl per well were added into 384-well polypropylene black plates (Nunc). Twelve μl per well of Assay Buffer (100 mM NaCl, 50 mM MOPS, pH 7.5, 0.8 mM CHAPS, 0.1 mM EGTA, 30 mM MgCl2, 0.3 mM TCEP, 0.2 mg/mL BSA) was added followed by […] per well of 50.4 nM recombinant His-tag Wip1 full length protein (amino acids #1-605) or recombinant His-tag Wip1(2-420) protein (amino acids #2-420) in Assay Buffer and the plate was incubated at RT (22° C.) for 5 min. Ten mM of fluorescein diphosphate (FDP) in DMSO was diluted to […] in Assay Buffer and […] per well was added to the plate and incubated at RT (22° C.) for 2 hours. […] per well of 64.1 mM EDTA in water were added to stop the enzyme reaction. The plate was centrifuged at 1,200 rpm (Eppendorf 5810R Plate centrifuge) for 1 minute and fluorescence intensity (Ex485/Em535) was measured on Perkin Elmer Victor Reader. EC50 values were calculated using either Prism (GraphPad) or ActivityBase software (IDBS), The IC50 results are provided in Table M.
# Chain of recombinant His-tag Wip1(2-420) protein (amino acids #2-420) (O15297 2-420): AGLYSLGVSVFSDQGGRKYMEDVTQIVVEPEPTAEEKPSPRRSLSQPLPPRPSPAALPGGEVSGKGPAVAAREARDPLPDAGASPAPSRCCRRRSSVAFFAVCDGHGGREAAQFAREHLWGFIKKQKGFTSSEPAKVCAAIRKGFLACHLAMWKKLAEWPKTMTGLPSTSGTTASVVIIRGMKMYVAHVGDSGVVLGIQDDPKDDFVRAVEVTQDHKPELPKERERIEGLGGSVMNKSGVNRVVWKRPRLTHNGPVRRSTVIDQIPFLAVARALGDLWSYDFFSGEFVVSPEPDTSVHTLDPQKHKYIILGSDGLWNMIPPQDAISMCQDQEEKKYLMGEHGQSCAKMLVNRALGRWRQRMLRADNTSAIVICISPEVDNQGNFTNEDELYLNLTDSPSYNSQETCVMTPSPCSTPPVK
row,IC50 [nM],Compound
1,7,"Cc1ncc(Cl)cc1N[C@@H](C)c1ccc(C(=O)N[C@@H](CC2CCC3CC32)C(=O)NC2CC2)s1 (stereo in doubt) [Compound 273, (2S)-3-[(2S)-bicyclo[3.1.0]hexan-2-yl]-2-({5-[(1S)-1-[(5-chloro-2-methylpyridin-3-yl)amino]ethyl]thiophen-2-yl}formamido)-N-cyclopropylpropanamide]"
2,314,"Cc1ncc(Cl)cc1N[C@H](C)c1ccc(C(=O)N[C@@H](CC2CCCC2)C(=O)N[C@@H]2CC2(F)F)s1 [Compound 22, (2S)-2-({5-[(1R)-1-[(5-chloro-2-methylpyridin-3-yl)amino]ethyl]thiophen-2-yl}formamido)-3-cyclopentyl-N-[(1R)-2,2-difluorocyclopropyl]propanamide]"
3,301,"COc1ncc(Cl)cc1N[C@H](C)c1ccc(C(=O)N[C@@H](CC2CCCC2)C(=O)NC2CC2)s1 [Compound 35, (2S)-2-({5-[(1R)-1-[(5-chloro-2-methoxypyridin-3-yl)amino]ethyl]thiophen-2-yl}formamido)-3-cyclopentyl-N-cyclopropylpropanamide]"
4,500,"COc1ncc(Cl)cc1N[C@H](C)c1ccc(C(=O)N[C@@H](CC2CCCC2)C(=O)NC23CC(C2)C3)s1 [Compound 61, (2S)-N-{bicyclo[1.1.1]pentan-1-yl}-2-({5-[(1R)-1-[(5-chloro-2-methoxypyridin-3-yl)amino]ethyl]thiophen-2-yl}formamido)-3-cyclopentylpropanamide]"
5,270,"CC[C@@H](Nc1cc(Cl)cnc1C)c1ccc(C(=O)N[C@@H](CC2CCCC2)C(=O)NC23CC(C2)C3)s1 [Compound 67, (2S)-N-{bicyclo[1.1.1]pentan-1-yl}-2-({5-[(1R)-1-[(5-chloro-2-methylpyridin-3-yl)amino]propyl]thiophen-2-yl}formamido)-3-cyclopentylpropanamide]"
6,693,"CC[C@@H](Nc1cc(Cl)cnc1C)c1ccc(C(=O)N[C@@H](CC2CCCC2)C(=O)NC23CC(C#N)(C2)C3)s1 [Compound 81, (2S)-2-({5-[(1R)-1-[(5-chloro-2-methylpyridin-3-yl)amino]propyl]thiophen-2-yl}formamido)-N-{3-cyanobicyclo[1.1.1]pentan-1-yl}-3-cyclopentylpropanamide]"
7,484,"COc1ncc(Cl)cc1N[C@H](C)c1ccc(C(=O)N[C@@H](CC2CCCC2)C(=O)NC23CC(C#N)(C2)C3)s1 [Compound 83, (2S)-2-({5-[(1R)-1-[(5-chloro-2-methoxypyridin-3-yl)amino]ethyl]thiophen-2-yl}formamido)-N-{3-cyanobicyclo[1.1.1]pentan-1-yl}-3-cyclopentylpropanamide]"
8,8,"Cc1ncc(Cl)cc1N[C@@H](C)c1ccc(C(=O)N[C@@H](CC2CCCC2)C(=O)NC(C)C)s1 [Compound 84, (2S)-2-({5-[(1S)-1-[(5-chloro-2-methylpyridin-3-yl)amino]ethyl]thiophen-2-yl}formamido)-3-cyclopentyl-N-(propan-2-yl)propanamide]"
9,7,"Cc1ncc(Cl)cc1N[C@@H](C)c1ccc(C(=O)N[C@@H](CC2CCCC2)C(=O)Nc2ccc(C#N)cc2)s1 [Compound 85, (2S)-2-({5-[(1S)-1-[(5-chloro-2-methylpyridin-3-yl)amino]ethyl]thiophen-2-yl}formamido)-N-(4-cyanophenyl)-3-cyclopentylpropanamide]"
10,8,Cc1cccc(NC(=O)[C@H](CC2CCCC2)NC(=O)c2ccc([C@H](C)Nc3cc(Cl)cnc3C)s2)n1 [Compound 86]

row,Compound,IC50 [nM]
1,"Cc1ncc(Cl)cc1N[C@H](C)c1ccc(C(=O)N[C@@H](CC2CCCC2)C(=O)NC2CC2)s1 [Compound 9, 5-[(1R)-1-[(5-chloro-2-methyl-3-pyridyl)amino]ethyl]-N-[(1S)-1-(cyclopentylmethyl)-2-(cyclopropylamino)-2-oxo-ethyl]thiophene-2-carboxamide]",411
